{"source": "ChEMBL document CHEMBL3301361", "about": "“Experimental in vitro DMPK and physicochemical data on a set of publicly disclosed compounds”"}
{"test": "physchem", "conditions": "octan-1-ol/water, pH 7.4"}
{"smiles": "CN1CCN(C(=O)OC2c3nccnc3C(=O)N2c2ccc(Cl)cn2)CC1", "note": "(stereo not drawn) [ZOPICLONE]", "logD": 1.1}
{"test": "physchem", "conditions": "octan-1-ol/water, pH 7.4, LogD7.4"}
{"smiles": "NS(=O)(=O)Cc1noc2ccccc12", "note": "[ZONISAMIDE]", "logD": 0.55}
{"test": "physchem", "conditions": "pH 7.4 buffer", "units": {"solubility thermodynamic": "µM"}}
{"smiles": "N=C(N)c1ccc2cc(C(=O)Nc3ccc(CN)cc3)cc(Nc3ncccn3)c2c1", "solubility thermodynamic": 151}
{"smiles": "CCn1cnc(-c2ccccc2)c1-c1nc2c(N)ncnc2s1", "solubility thermodynamic": 170}
{"smiles": "CSc1nc(N)n2nc(-c3ccco3)nc2n1", "solubility thermodynamic": 151}
{"smiles": "O=C(NNC(=O)c1ccccc1)c1ccccc1", "solubility thermodynamic": 182}
{"smiles": "N#Cc1ccccc1C(=O)N1CCC(C(=O)c2ccc(F)cc2)CC1", "solubility thermodynamic": 135}
{"smiles": "c1ccc2oc(-c3cncc(-c4cnn(C5CCNCC5)c4)c3)nc2c1", "solubility thermodynamic": 87.1}
{"smiles": "O=C(O)CCC[C@@H]1c2ccccc2C[C@H]1NC(=O)c1cc2cc(F)ccc2[nH]1", "solubility thermodynamic": 85.1}
{"smiles": "COc1ccc(NC(=O)c2cc(C)no2)cc1", "solubility thermodynamic": 158}
{"smiles": "Cc1ccccc1C(=O)Nc1ccccc1", "solubility thermodynamic": 186}
{"smiles": "O=C(O)c1cc2ccc(F)cc2n1Cc1ccc(Cl)c(Cl)c1", "solubility thermodynamic": 182}
{"smiles": "O=C(NNc1nc2ccccc2o1)c1ccccc1", "solubility thermodynamic": 129}
{"smiles": "O=C(NC1CCN(C(=O)c2cccs2)CC1)c1ccccc1", "solubility thermodynamic": 166}
{"smiles": "CNC(=O)[C@@H](NC(=O)[C@H](CC(C)C)[C@@H](Sc1ccccc1)C(=O)NO)C(C)(C)C", "solubility thermodynamic": 83.2}
{"smiles": "O=C(c1ccccc1)N1CCc2ccccc21", "solubility thermodynamic": 91.2}
{"smiles": "O=C(Nc1ccccc1)N1CCN(c2ccccn2)CC1", "solubility thermodynamic": 170}
{"smiles": "COc1cc(S(N)(=O)=O)c(OC)cc1N", "solubility thermodynamic": 93.3}
{"smiles": "COc1ccc(C(=O)Nc2nccs2)cc1OC", "solubility thermodynamic": 132}
{"smiles": "Oc1ncnc2c1cnn2Cc1ccccc1", "solubility thermodynamic": 158}
{"smiles": "O=S(=O)(NCc1ccccc1)c1cccc2nonc12", "solubility thermodynamic": 141}
{"smiles": "O=C(NCc1ccccc1)c1ccc(=O)oc1", "solubility thermodynamic": 135}
{"smiles": "C[C@@H](Cc1ccccc1)Oc1cc(OC2CCOCC2)cc(C(=O)Nc2ccc(C(=O)O)cn2)c1", "solubility thermodynamic": 105}
{"smiles": "COc1cc(OC2CNC2)ccc1Nc1ncc(Cl)c(-c2cnc3ccccn23)n1", "solubility thermodynamic": 81.3}
{"smiles": "Nc1c2c(O)nc(O)cc2nn1-c1ccccc1", "solubility thermodynamic": 178}
{"smiles": "COc1cccc(NC(=O)Cn2cc(Oc3ncnc4cc(OC)c(OCCN5CCCCC5)cc34)cn2)c1", "solubility thermodynamic": 141}
{"smiles": "CC[C@@H](C)NC(=O)c1ccc(Oc2ccc(C#C[C@]3(O)CN4CCC3CC4)cc2)cc1", "solubility thermodynamic": 112}
{"smiles": "CCN(C(=O)Cc1ccc(S(C)(=O)=O)cc1)C1CCN(CCC(c2ccccc2)N2CCN(c3cccc(F)c3)CC2)CC1", "note": "(stereo not drawn)", "solubility thermodynamic": 144}
{"smiles": "COc1ccc(Nc2ncnc3cccc(OC4CCN(C)CC4)c23)cc1Cl", "solubility thermodynamic": 87.1}
{"smiles": "CNC(=O)c1ccc(CC(=O)N(C)C2CCN(Cc3ccc(C(F)(F)F)cc3)CC2)cc1", "solubility thermodynamic": 107}
{"smiles": "CN(C(=O)Cc1ccc(-n2cnnn2)cc1)C1CCN(Cc2ccc(C(F)(F)F)nc2)CC1", "solubility thermodynamic": 182}
{"smiles": "CN(C(=O)Cc1ccc(-n2cnnn2)cc1)[C@@H]1CCN(Cc2ccc(C(F)(F)F)nc2)C[C@@H]1F", "solubility thermodynamic": 95.5}
{"smiles": "O=C(Nc1ccc(Cl)c(Cl)c1)N1CCN(C[C@@H]2CCCN(CCCc3ccccc3)C2)CC1", "solubility thermodynamic": 144}
{"smiles": "N#CC1(NC(=O)[C@@H]2CCCC[C@H]2C(=O)N2CCN(c3nc(-c4ccccc4)cs3)CC2)CC1", "solubility thermodynamic": 95.5}
{"smiles": "CC(C)Oc1cc(O[C@H](C)c2ccccc2)cc(C(=O)Nc2ccc(C(=O)O)cn2)c1", "solubility thermodynamic": 112}
{"smiles": "O=C(Cc1cc(Nc2ncnc3cc(OCCCN4CCC[C@@H]4CO)ccc23)[nH]n1)Nc1cccc(F)c1", "solubility thermodynamic": 102}
{"smiles": "CCN(CCO)CCCOc1ccc2c(Nc3cc(CC(=O)Nc4cccc(F)c4F)[nH]n3)ncnc2c1", "solubility thermodynamic": 93.3}
{"smiles": "CCCN(CCO)CCCOc1ccc2c(Nc3cc(CC(=O)Nc4cccc(F)c4)[nH]n3)ncnc2c1", "solubility thermodynamic": 112}
{"smiles": "N#CC1(NC(=O)[C@@H]2CCCC[C@H]2C(=O)N2CCc3[nH]c4c(C(F)(F)F)cccc4c3C2)CC1", "solubility thermodynamic": 144}
{"smiles": "N#CC1(NC(=O)[C@@H]2CCCC[C@H]2C(=O)N2CCc3[nH]c4c(OC(F)(F)F)cccc4c3C2)CC1", "solubility thermodynamic": 123}
{"smiles": "N#CC1(NC(=O)[C@@H]2CCCC[C@H]2C(=O)N2CCc3[nH]c4ccc(Cl)cc4c3C2)CC1", "solubility thermodynamic": 129}
{"smiles": "CC(C)c1ccc2[nH]c3c(c2c1)CN(C(=O)[C@@H]1CCCC[C@H]1C(=O)NC1(C#N)CC1)CC3", "solubility thermodynamic": 83.2}
{"smiles": "CN(C)C(=O)c1cc(-c2nc(N3CCOCC3)cc(C3(S(C)(=O)=O)CC3)n2)c2cc[nH]c2c1", "solubility thermodynamic": 100}
{"smiles": "CC(=O)N1CCN(CCOc2ccc(C3(O)CCN(c4ccc5nnc(C(F)(F)F)n5n4)CC3)cc2)CC1", "solubility thermodynamic": 170}
{"smiles": "Cc1cc(C)cc(-c2[nH]c3sc(C(C)(C)C(=O)N4C5CCC4CC5)cc3c2CCN2CCC(CNC(=O)N3CCOCC3)CC2)c1", "solubility thermodynamic": 112}
{"smiles": "Cc1cc(C)cc(-c2[nH]c3sc(C(C)(C)C(=O)N4C5CCC4CC5)cc3c2CCN2CCC(C(=O)N3CCCC(O)C3)CC2)c1", "note": "(stereo not drawn)", "solubility thermodynamic": 87.1}
{"smiles": "Nc1ccccc1NC(=O)c1ccc(N2CCOCC2)cc1", "solubility thermodynamic": 182}
{"smiles": "C[C@@H](Oc1cccc2ncnc(Nc3ccc4c(cnn4Cc4ccccn4)c3)c12)C(=O)N1CCCC1", "solubility thermodynamic": 110}
{"smiles": "c1ccc(Nc2ncnc3ccccc23)cc1", "solubility thermodynamic": 132}
{"smiles": "COc1ccc(Cn2c(CCc3c[nH]c4ccccc34)nnc2[C@@H](Cc2c[nH]c3ccccc23)NC(=O)C(C)(C)N)cc1", "solubility thermodynamic": 182}
{"smiles": "COc1cc2ncnc(Nc3cccc(Cl)c3F)c2cc1CN(C)C1CCNC1=O", "note": "(stereo not drawn)", "solubility thermodynamic": 89.1}
{"smiles": "CC(C)Oc1cc(O[C@@H](C)c2ccccc2)cc(C(=O)Nc2ccc(C(=O)O)cn2)c1", "solubility thermodynamic": 89.1}
{"smiles": "COCCN(Cc1cc2c(Nc3cccc(Cl)c3F)ncnc2cc1OC)[C@@H](C)C(N)=O", "solubility thermodynamic": 166}
{"smiles": "c1ccc(CSc2ncnc3[nH]cnc23)cc1", "solubility thermodynamic": 95.5}
{"smiles": "CC(=O)NC1CCN(C(=O)CN2CCN(CCc3c(-c4cc(C)cc(C)c4)[nH]c4sc(C(C)(C)C(=O)N5C6CCC5CC6)cc34)CC2)C1", "note": "(stereo not drawn)", "solubility thermodynamic": 107}
{"smiles": "Nc1ccccc1NC(=O)c1ccc(C2CCN(CCC(=O)Nc3ccccc3F)CC2)cc1", "solubility thermodynamic": 112}
{"smiles": "C[C@H](Oc1cccc2ncnc(Nc3ccc4c(cnn4Cc4ccccn4)c3)c12)C(=O)N1CCOCC1", "solubility thermodynamic": 166}
{"smiles": "COc1cc2c(Nc3cc(CC(=O)Nc4cccc(F)c4)[nH]n3)ncnc2cc1OCCCN1CCC[C@@H]1CO", "solubility thermodynamic": 162}
{"smiles": "Cc1ccc(/C=C2\\SC(=O)NC2=O)cc1", "solubility thermodynamic": 85.1}
{"smiles": "CC(=O)NC1CN(c2ccc(Nc3ncc(F)c(-c4cnc(C)n4C(C)C)n3)cc2)C1", "solubility thermodynamic": 120}
{"smiles": "Cc1ncc(-c2nc(Nc3ccc(N4CCN(C(=O)CO)CC4)cc3)ncc2F)n1C(C)C", "solubility thermodynamic": 158}
{"smiles": "CCN(CC)C(=O)C(C)(C)c1ccc2[nH]c(-c3cc(C)cc(C)c3)c(CCNCCCCc3ccncc3)c2c1", "solubility thermodynamic": 141}
{"smiles": "CN(C)CCNS(=O)(=O)c1ccc(Nc2nccc(-c3cnc4cccnn34)n2)cc1", "solubility thermodynamic": 93.3}
{"smiles": "N=C1S/C(=C/c2ccco2)C(=O)N1c1nccs1", "solubility thermodynamic": 182}
{"smiles": "Cc1ncc(-c2nc(Nc3ccc(N4CCOCC4)cc3)ncc2F)n1C(C)C", "solubility thermodynamic": 118}
{"smiles": "CN(C)CCCNS(=O)(=O)c1ccc(Nc2nccc(-c3cnc4cccnn34)n2)cc1", "solubility thermodynamic": 158}
{"smiles": "Cn1nc(C(C)(C)C)cc1C(=O)N[C@@H](Cc1cccc(Cl)c1)C(=O)NCC#N", "solubility thermodynamic": 93.3}
{"smiles": "CCOC(=O)c1cc2ccccc2[nH]1", "solubility thermodynamic": 89.1}
